Laboratory results as given in patent publication US12226414B2, “1-isopropyl-3-methyl-8-(pyridin-3-yl)-1,3-dihydro-2H-imidazo[4,5-c] cinnolin-2-one as selective modulators of ataxia telangiectasia mutated (ATM) kinase and uses thereof” (SUZHOU ZANRONG PHARMA LIMITED, priority 2018, dated 2025).

What follows are compounds tested against ATM (Homo sapiens (Human), UniProt Q13315) (assay: ATM biochemical potency assay).
Procedure: The plate was incubated at room temperature for 10 minutes. […] Data was collected by Caliper.

Chain of ATM (Q13315 whole entry, looked up): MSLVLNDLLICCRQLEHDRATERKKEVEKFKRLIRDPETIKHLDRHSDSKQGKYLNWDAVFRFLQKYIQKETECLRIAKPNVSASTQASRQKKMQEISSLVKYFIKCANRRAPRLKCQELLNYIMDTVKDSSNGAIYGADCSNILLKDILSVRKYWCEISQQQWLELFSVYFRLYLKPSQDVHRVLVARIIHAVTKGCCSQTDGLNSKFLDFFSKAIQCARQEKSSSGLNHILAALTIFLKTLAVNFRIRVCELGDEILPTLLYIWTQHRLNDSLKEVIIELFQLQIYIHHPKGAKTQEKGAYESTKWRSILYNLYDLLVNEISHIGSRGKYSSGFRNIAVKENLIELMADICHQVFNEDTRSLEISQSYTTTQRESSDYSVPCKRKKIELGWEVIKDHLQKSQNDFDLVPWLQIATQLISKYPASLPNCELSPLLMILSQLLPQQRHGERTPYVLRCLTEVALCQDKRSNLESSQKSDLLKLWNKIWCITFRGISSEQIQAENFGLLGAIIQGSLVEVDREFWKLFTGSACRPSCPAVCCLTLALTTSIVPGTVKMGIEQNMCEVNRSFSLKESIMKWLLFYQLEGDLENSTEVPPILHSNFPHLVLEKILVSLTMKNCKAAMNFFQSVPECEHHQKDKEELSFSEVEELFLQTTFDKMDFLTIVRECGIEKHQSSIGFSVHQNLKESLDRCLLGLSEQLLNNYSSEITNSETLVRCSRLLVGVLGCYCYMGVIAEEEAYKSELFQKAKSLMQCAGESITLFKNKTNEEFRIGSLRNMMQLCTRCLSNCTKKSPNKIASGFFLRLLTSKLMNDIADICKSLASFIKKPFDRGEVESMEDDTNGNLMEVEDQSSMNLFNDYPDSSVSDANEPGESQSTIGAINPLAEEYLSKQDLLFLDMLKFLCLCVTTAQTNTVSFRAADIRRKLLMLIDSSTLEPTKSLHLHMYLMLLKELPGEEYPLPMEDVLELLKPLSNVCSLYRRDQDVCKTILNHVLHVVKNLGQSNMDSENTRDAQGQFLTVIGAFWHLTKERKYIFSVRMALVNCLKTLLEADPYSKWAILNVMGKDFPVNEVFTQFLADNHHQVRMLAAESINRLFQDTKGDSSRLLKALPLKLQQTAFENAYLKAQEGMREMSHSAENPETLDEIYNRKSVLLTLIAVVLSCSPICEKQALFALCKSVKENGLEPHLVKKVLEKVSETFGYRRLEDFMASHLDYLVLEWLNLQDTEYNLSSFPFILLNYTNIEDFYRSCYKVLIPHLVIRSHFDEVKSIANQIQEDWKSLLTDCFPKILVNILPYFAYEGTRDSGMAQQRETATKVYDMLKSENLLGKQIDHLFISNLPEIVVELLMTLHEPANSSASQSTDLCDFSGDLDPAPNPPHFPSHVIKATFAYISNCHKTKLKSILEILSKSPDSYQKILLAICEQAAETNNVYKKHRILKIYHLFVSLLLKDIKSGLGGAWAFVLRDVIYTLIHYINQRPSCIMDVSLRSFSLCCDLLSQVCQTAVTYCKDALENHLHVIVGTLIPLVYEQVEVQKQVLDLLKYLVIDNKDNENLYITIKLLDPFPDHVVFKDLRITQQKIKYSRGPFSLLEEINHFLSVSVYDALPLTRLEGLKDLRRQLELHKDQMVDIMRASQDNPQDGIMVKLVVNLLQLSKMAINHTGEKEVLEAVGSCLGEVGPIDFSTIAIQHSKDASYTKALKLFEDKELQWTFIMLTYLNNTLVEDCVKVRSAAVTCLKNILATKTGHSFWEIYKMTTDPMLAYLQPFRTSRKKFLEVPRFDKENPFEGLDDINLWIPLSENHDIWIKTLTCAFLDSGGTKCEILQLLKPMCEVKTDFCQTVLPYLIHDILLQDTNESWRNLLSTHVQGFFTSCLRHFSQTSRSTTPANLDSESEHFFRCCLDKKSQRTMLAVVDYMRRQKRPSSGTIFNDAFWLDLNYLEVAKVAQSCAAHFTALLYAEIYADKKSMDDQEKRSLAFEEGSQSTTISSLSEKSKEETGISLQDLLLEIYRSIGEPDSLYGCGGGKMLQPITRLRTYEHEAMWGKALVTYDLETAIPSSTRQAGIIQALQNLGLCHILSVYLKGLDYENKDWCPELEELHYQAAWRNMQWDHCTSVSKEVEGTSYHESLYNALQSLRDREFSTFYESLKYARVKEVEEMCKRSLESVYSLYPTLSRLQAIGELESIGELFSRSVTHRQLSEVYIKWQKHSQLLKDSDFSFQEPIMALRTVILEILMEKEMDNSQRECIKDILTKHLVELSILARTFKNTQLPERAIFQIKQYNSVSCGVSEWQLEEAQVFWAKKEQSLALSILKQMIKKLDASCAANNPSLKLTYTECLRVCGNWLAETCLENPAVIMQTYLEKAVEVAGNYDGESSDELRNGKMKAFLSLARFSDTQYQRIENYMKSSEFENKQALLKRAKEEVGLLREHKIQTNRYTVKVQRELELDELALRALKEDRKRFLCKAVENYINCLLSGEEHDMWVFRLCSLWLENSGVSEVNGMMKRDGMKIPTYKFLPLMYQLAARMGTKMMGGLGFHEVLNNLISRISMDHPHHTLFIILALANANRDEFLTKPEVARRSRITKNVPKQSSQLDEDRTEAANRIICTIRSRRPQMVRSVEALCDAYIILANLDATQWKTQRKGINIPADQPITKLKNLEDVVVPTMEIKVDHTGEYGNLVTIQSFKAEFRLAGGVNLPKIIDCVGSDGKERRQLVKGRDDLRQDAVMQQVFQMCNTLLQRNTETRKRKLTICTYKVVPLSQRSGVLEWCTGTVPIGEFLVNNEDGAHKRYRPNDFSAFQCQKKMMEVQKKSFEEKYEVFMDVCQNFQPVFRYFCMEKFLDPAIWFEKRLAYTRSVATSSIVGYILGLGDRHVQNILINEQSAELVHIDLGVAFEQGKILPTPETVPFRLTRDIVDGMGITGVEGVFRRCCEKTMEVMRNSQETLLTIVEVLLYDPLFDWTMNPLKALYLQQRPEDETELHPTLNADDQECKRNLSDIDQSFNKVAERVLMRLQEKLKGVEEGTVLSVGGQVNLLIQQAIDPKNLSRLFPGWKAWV

Row | IC50 [nM] | SMILES
1 | 7 | CC(C)n1c(=O)n(C)c2nnc3cc(F)c(-c4ccc(OCCCN(C)C)nc4F)cc3c21 [Example 17, 8-(6-(3-(dimethylamino)propoxy)-2-fluoropyridin-3-yl)-7-fluoro-1-isopropyl-3-methyl-1,3-dihydro-2H-imidazo[4,5-c]cinnolin-2-one]
2 | 4.8 | Cn1c(=O)n(C2CCOCC2)c2c3cc(-c4ccc(OCCCN5CCCCC5)nc4)c(F)cc3nnc21 [Example 18, 7-fluoro-3-methyl-8-(6-(3-(piperidin-1-yl)propoxy)pyridin-3-yl)-1-(tetrahydro-2H-pyran-4-yl)-1H-imidazo[4,5-c]cinnolin-2(3H)-one]
3 | 13 | CN(C)CCCOc1ccc(-c2cc3c(cc2F)nnc2c3n(C3CCOCC3)c(=O)n2C)cn1 [Example 19, 8-(6-(3-(dimethylamino)propoxy)pyridin-3-yl)-7-fluoro-3-methyl-1-(tetrahydro-2H-pyran-4-yl)-1H-imidazo[4,5-c]cinnolin-2(3H)-one]
4 | 6 | Cn1c(=O)n(C2CCOCC2)c2c3cc(-c4ccc(OCCCN5CCCC5)nc4)c(F)cc3nnc21 [Example 20, 7-fluoro-3-methyl-8-(6-(3-(pyrrolidin-1-yl)propoxy)pyridin-3-yl)-1-(tetrahydro-2H-pyran-4-yl)-1H-imidazo[4,5-c]cinnolin-2(3H)-one]
5 | 97 | CN(C)CC1CCN(c2ccc(-c3cc4c(cc3F)nnc3c4n(C4CCOCC4)c(=O)n3C)cn2)C1 (stereo not shown) [Example 21, 8-(6-(3-((dimethylamino)methyl)pyrrolidin-1-yl)pyridin-3-yl)-7-fluoro-3-methyl-1-(tetrahydro-2H-pyran-4-yl)-1H-imidazo[4,5-c]cinnolin-2(3H)-one]
6 | > 1000 | Cn1c(=O)n(C2CCOCC2)c2c3cc(-c4ccc(OCCCN5CCC(F)CC5)nc4)c(F)cc3nnc21 [Example 24, 7-fluoro-8-(6-(3-(4-fluoropiperidin-1-yl)propoxy)pyridin-3-yl)-3-methyl-1-(tetrahydro-2H-pyran-4-yl)-1H-imidazo[4,5-c]cinnolin-2(3H)-one]
7 | > 1000 | Cn1c(=O)n(C2CCOCC2)c2c3cc(-c4ccc(OCCCN5CC[C@@H](F)C5)nc4)c(F)cc3nnc21 [Example 25, (R)-7-fluoro-8-(6-(3-(3-fluoropyrrolidin-1-yl)propoxy)pyridin-3-yl)-3-methyl-1-(tetrahydro-2H-pyran-4-yl)-1H-imidazo[4,5-c]cinnolin-2(3H)-one]
